Laboratory results: patent US12543733B2 (priority 2020, dated 2026)
Converted amounts (≈) assume the structure as drawn. Counter-ions that a name gives are not always drawn. Like-named read-outs stand apart in the source and are kept apart here.

Experiments:
Tribolium castaneum = test: Fumigation assay (fumigant toxicity) against adults of stored-product insects; format: in vivo; conditions: for LC50: Tribolium castaneum
Procedure: (§1) Culturing of Insects: The stored product insect rice weevil (S. oryzae L.) was reared on whole wheat and the rust-red flour beetle (T. castaneum Herbst.) was reared on wheat flour with 5% yeast. Rice weevil and flour beetle were maintained at 23.6±2.5° C., 70% relative humidity and a photoperiod of 12:12 (Light:Dark). Corcyra cephalonica were reared on medium consisting of finely ground rice and maize flour in the ratio 1:1 (w/w) under laboratory conditions (27±1° C., 75±5% R.H. with a 12:12 h light:dark cycle.

Sitophilus oryzae = test: as above; format: in vivo; conditions: for LC50: Sitophilus oryzae
Procedure: as §1

housefly = conditions: cited from earlier work
[1] = tested on: stored grain insect pests; test: Fumigation assay, range over the tested species
Procedure: Measuring insecticidal activity of Isosecotanapartholide and Lemon grass oil (Cymbopogon flexuosus) by Fumigation Assay: The insecticidal activity of Isosecotanapartholide and lemon grass oil was assessed by fumigation assay against adults of stored-product insects (Corcyra cephalonica, Sitophilus oryzae and Tribolium castaneum). For each treatment, 50 individuals were tested for S. oryzae and T. castaneum; particularly adults were released into 0.85 L desiccators that served as the fumigation chambers. In each desiccator, a Whatman No. 1 filter circle (diameter: 9 cm) was placed to serve as an evaporating surface for injecting active extract. […] Five replicates were used for each dosage and LC50 was determined from dose response data using probit analysis. Insect mortality for isosecotanapartholide was recorded after 24 hours of exposure. Insects were considered dead when no leg or antennal movements were observed. Morality rate was calculated using Abbott formula for natural mortality in untreated (Abbott, 1925, Journal of Economic Entomology, 18, 265-267).
For each time point, 20 adults stored grain pests were used and determined percentage mortality.

C. arietinum plants = test: Plant growth observation after seed treatment; format: in vivo
Corcyra cephalonica = test: Fumigation assay (fumigant toxicity) against adults of stored-product insects; format: in vivo; conditions: C. cephalonica adults, mortality after 24 hours of exposure
Procedure: as §1

[2] = tested on: V. radiata (Green gram) seeds; test: Seed germination test; format: in vivo; conditions: for % germination (Mean ± SE): Green gram
Procedure: (§2) In order to assess the effect of isosecotanapartholide on plant growth and seed germination, particularly 50 seeds of Chickpea and Green gram sample were treated with isosecotanapartholide at 50 and 100 ppm and germination tests were done at […] and 72 hours of exposure treatments. From each sample, twenty grains seeds were randomly selected from the treatment and soaked for about 30 minutes in distilled water, and kept on filter paper (paper towel) in a petri dish, moistened everyday with distilled water, and allowed to germinate at room temperature (25±2° C.). After 48 and 72 hours, germinated seeds were counted and percentage germination was determined as in Radwan et al. 2019 (Annals of Agricultural Sciences, 64(2), 183-187). Three replications of each were made for both treatment and control.
(§3) From each sample, twenty grains seeds were randomly selected from the treatment and soaked for about 30 minutes in distilled water, and kept on filter paper (paper towel) in a petri dish, moistened everyday with distilled water, and allowed to germinate at room temperature (25±2° C.). After 48 and 72 hours, germinated seeds were counted and percentage germination was determined as in Radwan et al. 2019 (Annals of Agricultural Sciences, 64(2), 183-187). Three replications of each were made for both treatment and control.

[3] = tested on: C. arietinum (Chick pea) seeds; test: Seed germination test; format: in vivo; conditions: for % germination (Mean ± SE): Chick pea
Procedure: as §2, §3

V. radiata plants = test: Plant growth observation after seed treatment; format: in vivo
adults of S. oryzae = conditions: 24 hours of exposure time; cited from earlier work
[4] = comparison with other fumigants, fumigation bioassay
[5] = comparison with other fumigants, fumigation bioassay, read-out: LC50
[6] = in comparison with control, observed for 2 weeks

P [Phosphine]
LC50 (Tribolium castaneum; [4]): 9.8 ng/mL (≈ 0.288 µM) | LC50 (Sitophilus oryzae; [4]): 7.8 ng/mL (≈ 0.229 µM)

C=CC(C)(O)CCC=C(C)C (centres unmarked) [Linalool]
LC50 (Tribolium castaneum; [5]): 49.8 ng/mL (≈ 0.323 µM) | LC50 (Sitophilus oryzae; [5]): 39.2 ng/mL (≈ 0.254 µM)

CC12CCC(CC1)C(C)(C)O2 [1,8 Cineole]
LD50 (housefly): 118 μg/fly | LC50 (Tribolium castaneum; [5]): 47 ng/mL (≈ 0.305 µM) | LC50 (Sitophilus oryzae; [5]): 31 ng/mL (≈ 0.201 µM)

CBr [Methyl bromide]
LC50 (Tribolium castaneum; [5]): 8.4 ng/mL | LC50 (Sitophilus oryzae; [5]): 3.6 ng/mL

C=C1C(=O)O[C@H](C2=C(C)[C@@H](O)CC2=O)[C@H]1CCC(C)=O [Isosecotanapartholide, (4S,5S)-5-[(3S)-3-hydroxy-2methyl-5-oxocyclopent-1-en-1-yl]-3-methylidene-4-(3oxobutyl)dihydrofuran-2(3H)-one]
LC50 values [1]: 1.7 to 2.2 ng/mL | LC90 range [1]: 3.2 to 4.0 ng/mL | response on plant growth (C. arietinum plants; 50 ppm, FIG. 4 (A)): comparable to control | adverse effect on plant growth (C. arietinum plants; [6]): did not cause any adverse effect | LC90 (Tribolium castaneum; T. castaneum adults, fumigant toxicity, mortality after 24 hours of exposure): 3.946 ng/mL (≈ 0.0142 µM) | LC50 (Tribolium castaneum; T. castaneum adults, fumigant toxicity, mortality after 24 hours of exposure, read-out: LC50): 2.19 ng/mL (≈ 0.00787 µM) | LC50 (Tribolium castaneum; [5]): 2.19 ng/mL (≈ 0.00787 µM) | LC90 (Corcyra cephalonica): 3.296 ng/mL (≈ 0.0118 µM) | LC50 (Corcyra cephalonica; Corcyra cephalonica): 1.83 ng/mL (≈ 0.00658 µM) | LC90 (Sitophilus oryzae; S. oryzae adults, fumigant toxicity, mortality after 24 hours of exposure): 3.274 ng/mL (≈ 0.0118 µM) | LC50 (Sitophilus oryzae; S. oryzae adults, fumigant toxicity, mortality after 24 hours of exposure, read-out: LC50): 1.82 ng/mL (≈ 0.00654 µM) | LC50 (Sitophilus oryzae; [5]): 1.82 ng/mL (≈ 0.00654 µM) | % germination (Mean ± SE) ([2]; 50 PPM, 24 hours): 93.33 ± 1.33% | % germination (Mean ± SE) ([2]; 50 PPM, 72 hours): 94.67 ± 1.33% | % germination (Mean ± SE) ([2]; 100 PPM, 24 hours): 96.00 ± 2.30% | % germination (Mean ± SE) ([2]; 100 PPM, 72 hours): 96.00 ± 2.30% | adverse effect on seed germination ([2]; V. radiata, in comparison with control): did not cause any adverse effect | adverse effect on seed germination ([3]; C. arietinum, in comparison with control): did not cause any adverse effect | % germination (Mean ± SE) ([3]; 50 PPM, 24 hours): 96.00 ± 2.30% | % germination (Mean ± SE) ([3]; 50 PPM, 72 hours): 97.33 ± 1.33% | % germination (Mean ± SE) ([3]; 100 PPM, 24 hours): 94.67 ± 1.33% | % germination (Mean ± SE) ([3]; 100 PPM, 72 hours): 96.00 ± 2.30% | response on plant growth (V. radiata plants; 50 ppm, FIG. 4 (B)): comparable to control | adverse effect on plant growth (V. radiata plants; [6]): did not cause any adverse effect

Cc1ccc(C(C)C)cc1O [Carvacol]
LC50 (Tribolium castaneum; [4]): 17.0 ng/mL (≈ 0.113 µM) | LC50 (Sitophilus oryzae; [4]): 14.2 ng/mL (≈ 0.0945 µM)

C=CCN=C=S [allylisothiocyanate]
concentration found toxic (adults of S. oryzae): less than 6.3 μl/l

CCOC=O [Ethyl formate]
LC50 (Tribolium castaneum; [5]): 1.12 ng/mL | LC50 (Sitophilus oryzae; [5]): 0.72 ng/mL
